From patent publication US20060035904A1, “Antineoplastic combinations” (Wyeth, priority 2001, published 2006)
Structures can show the parent of a compound that is named as a salt.

Experiments:
orthotopic glioma = settings: nude mice; cited from earlier work
[1] = tested on: histologically diverse tumor cells; settings: cited from earlier work
[2] = tested on: human tumor xenografts of diverse histological types; settings: cited from earlier work
breast cancer lines = settings: one of two lines studied; cited from earlier work
[3] = tested on: human glioblastoma cell line; settings: in vitro; cited from earlier work
human pancreatic tumors = settings: several tumors, nude mice; cited from earlier work
mTOR = mTOR (Homo sapiens, UniProt P42345+P62942); experiment: Western blot of p70s6 kinase serine389 phosphorylation in growth factor stimulated cells; format: cell-based
Description: Cell lines were grown in optimal basal medium supplemented with 10% fetal bovine serum and penicillin/treptomycin. For phosphorylation studies, cells were subcultured in 6-well plates. After the cells have completely attached, they were serum-starved. Treatment with mTOR inhibitors ranged from 2 to 16 hours. After drug treatment, the cells were rinsed once with PBS (phosphate buffered saline without Mg^2+ and Ca^2+) and then lysed in 150-200 μl NuPAGE LDS sample buffer per well. The lysates were briefly sonicated and then centrifuged for 15 minutes at 14000 rpm. Lysates were stored at minus −80° C. until use.
The test procedure can also be run by incubating the cells in growth medium overnight, after they have completely attached.
1) Prepare total protein samples by placing 22.5 μl of lysate per tube and then add 2.5 μl NuPAGE sample reducing agent. Heat samples at 70° C. for 10 minutes. Electrophorese using NuPAGE gels and NuPAGE SDS buffers.
2) Transfer the gel to a nitrocellulose membrane with NuPAGE transfer buffer. The membrane is blocked for 1 hour with blocking buffer (Tris buffered saline with 0.1% Tween and 5% nonfat-milk). Rinse membranes 2× with washing buffer (Tris buffered saline with 0.1% Tween).
3) Blots/membranes are incubated with the Phospho-p70 S6 Kinase (Thr^389) primary antibody (1:1000) in blocking buffer overnight at 4° C. in a rotating platform. […]

[4] = tested on: human colon (GC3) xenograft; experiment: human colon (GC3) mouse xenograft test procedure; format: in vivo, mice; settings: gemcitabine on days 1, 4, 8 in cycle 1 only; CCI-779 daily x5 for 2 consecutive weeks every 21 days, 3 cycles
Description: Female CBA/CaJ mice (Jackson Laboratories, Bar Harbor, Me.), 4 weeks of age, were immune-deprived by thymectomy, followed 3 weeks later by whole-body irradiation (1200 cGy) using a ^137Cs source. Mice received 3×10^6 nucleated bone marrow cells within 6-8 h of irradiation. Tumor pieces of approximately 3 mm^3 were implanted in the space of the dorsal lateral flanks of the mice to initiate tumor growth. Tumor-bearing mice were randomized into groups of seven prior to initiating therapy. Mice bearing tumors each received drug when tumors were approximately 0.20-1 cm in diameter. Tumor size was determined at 7-day intervals using digital Vernier calipers interfaced with a computer. Tumor volumes were calculated assuming tumors to be spherical using the formula [(π/6)×d^3], where d is the mean diameter. CCI-779 was given on a schedule of 5 consecutive days for 2 weeks with this cycle repeated every 21 days for 3 cycles. […] The schedule of the other chemotherapy drug for each study was as follows: Gemcitabine on days 1, 4, 8 in cycle 1 only. […] In this test procedure, CCI-779 was given daily 5 for 2 consecutive weeks every 21 days for 3 cycles and gemcitabine given on days 1, 4, and 8 in the first cycle only.

In the case of `CO[C@H]1C[C@@H]2CC[C@@H](C)[C@@](O)(O2)C(=O)C(=O)N2CCCC[C@H]2C(=O)O[C@H]([C@H](C)C[C@@H]2CC[C@@H](OC(=O)C(C)(CO)CO)[C@H](OC)C2)CC(=O)[C@H](C)/C=C(\C)[C@@H](O)[C@@H](OC)C(=O)[C@H](C)C[C@H](C)/C=C/C=C/C=C/1C` [CCI-779, rapamycin 42-ester with 3-hydroxy-2-(hydroxymethyl)-2-methylpropionic acid], the “activity in orthotopic glioma model” value (orthotopic glioma) is listed as “active”, the “sensitivity of tumor cell lines in vitro” value ([1]; CNS cancer, leukemia (T-cell), breast cancer, prostate cancer and melanoma lines) is listed as “among the most sensitive” and the “growth of tumor cells in vitro” value ([1]; a number of histologically diverse tumor cells) is listed as “inhibit the growth”. For the same molecule, the cell cycle effect [1] was “arrested cells in the G1 phase”, the “sensitivity of gliomas in vivo” value ([2]; gliomas) was “particularly sensitive” and the “activity against human tumor xenografts” value ([2]; nude mice, diverse histological types) was “has activity”. The “growth of breast cancer lines in vivo” value (breast cancer lines) was “inhibited”, the “growth factor (platelet-derived)-induced stimulation” value [3] was “markedly suppressed” and the “growth of human pancreatic tumors” value (human pancreatic tumors) was “inhibited”.
With `CO[C@H]1C[C@@H]2CC[C@@H](C)[C@@](O)(O2)C(=O)C(=O)N2CCCC[C@H]2C(=O)O[C@H]([C@H](C)C[C@@H]2CC[C@@H](O)[C@H](OC)C2)CC(=O)[C@H](C)/C=C(\C)[C@@H](O)[C@@H](OC)C(=O)[C@H](C)C[C@H](C)/C=C/C=C/C=C/1C` [rapamycin] the “phosphorylation of serine389 of p70s6 kinase” value (mTOR) was “completely blocks”.
With `Nc1ccn([C@@H]2O[C@H](CO)[C@@H](O)C2(F)F)c(=O)n1` [gemcitabine, 2′-deoxy-2′,2′-difluorocytidine monohydrochloride ((beta)-isomer)] the “tumor regression in the first cycle” value [4] was “tumor regression seen in the first cycle”.
